Data on 16 molecules can be found in patent US8501750B2, “Heterocyclic compound and use thereof” (Takeda Pharmaceutical Company Limited, priority 2007, dated 2013).

One assay concerns the target PPARγ (Homo sapiens (Human), UniProt P37231). Description: PPARγ activating action (luciferase reporter in PPARγ:RXRα:4ERPP/CHO-K1 cells). Format: cell-based. The following applies: CHO-K1, 24 h, read-out: PPARγ activating action (activation % (1 μM)). As for the experimental part: Then the medium was removed from the 96-well half area white plate, 45 μl of Ham's F12 medium containing 0.1% fatty acid-free bovine serum albumin (BSA) and 5 μl of test compound were added, and the cells were cultured in a CO2 gas incubator at 37° C. for 1 day. The medium was removed and 20 μl of PicaGene 7.5 [manufactured by Dainippon Ink and Chemicals Corporation, Japan] diluted 2-fold with HBSS (HANKS' BALANCED SALT SOLUTION) [manufactured by BIO WHITTAKER, USA] was added. After stirring, the luciferase activity was determined using 1420 ARVO Multilabel Counter [manufactured by PerkinElmer, USA]. […] A CHO-K1 cell cultured in a 150 cm^2 cell culture flask [manufactured by Corning Costar Corporation, USA] containing Ham's F12 medium [manufactured by INVITROGEN, USA] supplemented with 10% fetal bovine serum [manufactured by INVITROGEN, USA] was scraped by treating with 0.5 g/L trypsin-0.2 g/L EDTA (ethylenediaminetetraacetic acid) [manufactured by Life Technologies, Inc., USA], and then the cell was washed with PBS (Phosphate-buffered saline) [manufactured by INVITROGEN, USA], centrifuged (1000 rpm, 5 minutes) and suspended in PBS. Subsequently, DNA was introduced into the cell under the conditions shown below using GENE PULSER [manufactured by Bio-Rad Laboratories, USA]. […] Subsequently, the cell was transferred into a F12 medium containing 10% fetal bovine serum and cultured for 24 hours, and then the cell was scraped again and centrifuged, and then suspended in Ham's F12 medium containing 10% fetal bovine serum supplemented with 500 μg/ml of Geneticin [manufactured by INVITROGEN, USA] and 250 μg/ml of Zeocin [manufactured by INVITROGEN, USA]. The obtained suspension was diluted to the density of 10^4 cells/ml and inoculated in a 96-well plate [manufactured by Corning Costar Corporation, USA], which was cultured in a CO2 gas incubator at 37° C., whereby obtaining a Geneticin- and Zeocin-resistant transformant.
In general terms: A reporter such as luciferase makes a cellular process visible.

In another assay the target is AT1 receptor (Homo sapiens (Human), UniProt P30556). Description: AT1 receptor binding inhibitory action.
Chain of AT1 receptor (P30556 whole entry): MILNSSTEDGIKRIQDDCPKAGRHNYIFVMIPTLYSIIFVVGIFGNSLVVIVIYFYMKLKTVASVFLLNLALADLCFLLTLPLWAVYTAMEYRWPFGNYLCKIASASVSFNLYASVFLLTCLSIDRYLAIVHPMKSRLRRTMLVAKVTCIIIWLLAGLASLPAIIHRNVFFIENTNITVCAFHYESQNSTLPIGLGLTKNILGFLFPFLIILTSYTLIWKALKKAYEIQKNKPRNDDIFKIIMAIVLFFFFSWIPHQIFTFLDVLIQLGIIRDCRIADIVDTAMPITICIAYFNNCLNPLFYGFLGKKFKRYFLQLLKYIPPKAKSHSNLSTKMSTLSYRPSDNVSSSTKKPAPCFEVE
Where [1] appears, read: test compound 1 μM, luciferase activity relative to control compound X (1 μM) = 100%, non-administration group = 0%.

Counter-ions that a name gives are not always drawn. Like-named read-outs stand apart in the source and are kept apart here.

Chain of PPARγ (P37231 29-505): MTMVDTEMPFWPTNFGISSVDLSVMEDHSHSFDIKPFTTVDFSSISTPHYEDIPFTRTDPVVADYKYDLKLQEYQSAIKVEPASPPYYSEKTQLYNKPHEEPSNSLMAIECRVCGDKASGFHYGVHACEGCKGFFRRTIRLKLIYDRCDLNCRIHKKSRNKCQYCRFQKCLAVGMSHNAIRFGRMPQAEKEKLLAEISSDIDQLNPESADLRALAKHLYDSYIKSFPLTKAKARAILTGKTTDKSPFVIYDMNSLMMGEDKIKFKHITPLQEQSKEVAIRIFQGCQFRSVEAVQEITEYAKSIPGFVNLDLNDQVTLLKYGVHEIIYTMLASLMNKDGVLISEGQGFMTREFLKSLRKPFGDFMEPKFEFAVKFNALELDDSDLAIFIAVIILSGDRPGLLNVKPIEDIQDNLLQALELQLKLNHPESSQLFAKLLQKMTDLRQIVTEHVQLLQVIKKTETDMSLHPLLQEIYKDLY
Chain of PPARγ (P19793 whole entry partner): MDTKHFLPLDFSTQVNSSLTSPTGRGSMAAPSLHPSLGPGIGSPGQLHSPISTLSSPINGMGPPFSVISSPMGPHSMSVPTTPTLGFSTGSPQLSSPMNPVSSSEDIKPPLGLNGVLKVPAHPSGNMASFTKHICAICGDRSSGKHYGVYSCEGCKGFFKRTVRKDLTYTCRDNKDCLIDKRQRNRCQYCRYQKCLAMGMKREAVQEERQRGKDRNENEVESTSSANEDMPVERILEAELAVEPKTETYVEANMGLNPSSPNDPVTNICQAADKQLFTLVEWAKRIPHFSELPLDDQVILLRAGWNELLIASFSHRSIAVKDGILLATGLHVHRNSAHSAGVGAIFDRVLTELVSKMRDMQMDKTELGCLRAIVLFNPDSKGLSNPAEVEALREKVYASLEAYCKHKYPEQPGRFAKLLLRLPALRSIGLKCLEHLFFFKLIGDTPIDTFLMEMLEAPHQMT

By IC50 is commonly meant the concentration at which inhibition is half-maximal. Take `CC(C)(C)C(=O)Cn1c(=O)c2cc(C3CC3)sc2n(Cc2ccc(-c3ccccc3-c3noc(=O)[nH]3)cc2)c1=O` [Ex. 186, 6-cyclopropyl-3-(3,3-dimethyl-2-oxobutyl)-1-{[2′-(5-oxo-4,5-dihydro-1,2,4-oxadiazol-3-yl)biphenyl-4-yl]methyl}thieno[2,3-d]pyrimidine-2,4(1H,3H)-dione]: the activation at 1 µM at PPARγ (setting [1]) is 52%. On AT1 receptor, the concentration for half-maximal inhibition (IC50) was found to be 1.2 nM.

Turning to `CCc1cc2c(=O)n(CC(=O)c3ccc(OC)cc3)c(=O)n(Cc3ccc(-c4ccccc4-c4noc(O)n4)cc3OC)c2s1` [Ex. 192, 6-ethyl-1-{[3-methoxy-2′-(5-oxo-4,5-dihydro-1,2,4-oxadiazol-3-yl)biphenyl-4-yl]methyl}-3-[2-(4-methoxyphenyl)-2-oxoethyl]thieno[2,3-d]pyrimidine-2,4(1H,3H)-dione potassium salt], the activation at 1 µM on PPARγ worked out at 49%. The molecule further yielded an IC50 at AT1 receptor of 2.3 nM.

On to `CCc1cc2c(=O)n(CC(=O)c3ccc(OC)cc3)c(=O)n(Cc3ccc(-c4ccccc4-c4noc(O)n4)cc3Br)c2s1` [Ex. 194, 1-{[3-bromo-2′-(5-oxo-4,5-dihydro-1,2,4-oxadiazol-3-yl)biphenyl-4-yl]methyl}-6-ethyl-3-[2-(4-methoxyphenyl)-2-oxoethyl]thieno[2,3-d]pyrimidine-2,4(1H,3H)-dione potassium salt], for which the activation at 1 µM on PPARγ is 34%. The IC50 at AT1 receptor is 1.7 nM.

On to `CCc1cc2c(=O)n(CC(=O)c3ccc(OC)cc3)c(=O)n(Cc3c(F)cc(-c4ccccc4-c4noc(=O)[nH]4)cc3F)c2s1` [Ex. 197, 1-{[3,5-difluoro-2′-(5-oxo-4,5-dihydro-1,2,4-oxadiazol-3-yl)biphenyl-4-yl]methyl}-6-ethyl-3-[2-(4-methoxyphenyl)-2-oxoethyl]thieno[2,3-d]pyrimidine-2,4(1H,3H)-dione], for which the activation at 1 µM on PPARγ (setting [1]) was found to be 67%. This molecule came in with an IC50 at AT1 receptor of 1.4 nM.

Take `CCc1cc2c(=O)n(CC(=O)c3ccc(OC)cc3)c(=O)n(Cc3ccc(-c4ccc(F)cc4-c4noc(=O)[nH]4)cc3)c2s1` [Ex. 198, 6-ethyl-1-{[4′-fluoro-2′-(5-oxo-4,5-dihydro-1,2,4-oxadiazol-3-yl)biphenyl-4-yl]methyl}-3-[2-(4-methoxyphenyl)-2-oxoethyl]thieno[2,3-d]pyrimidine-2,4(1H,3H)-dione]: on PPARγ (setting [1]), the activation at 1 µM was 36%. Besides, the IC50 at AT1 receptor was determined as 1.5 nM.

Turning to `CCc1cc2c(=O)n(CC(=O)c3ccc(OC)cc3)c(=O)n(Cc3ccc(-c4cc(F)ccc4-c4noc(=O)[nH]4)cc3)c2s1` [Ex. 203, 6-ethyl-1-{[5′-fluoro-2′-(5-oxo-4,5-dihydro-1,2,4-oxadiazol-3-yl)biphenyl-4-yl]methyl}-3-[2-(4-methoxyphenyl)-2-oxoethyl]thieno[2,3-d]pyrimidine-2,4(1H,3H)-dione], the activation at 1 µM on PPARγ (setting [1]) was 28%. This molecule also yielded a 50% inhibitory concentration (IC50) on AT1 receptor of 1.8 nM.

For `CCc1cc2c(=O)n(CC(=O)C3CCCCC3)c(=O)n(Cc3ccc(-c4ccccc4-c4noc(=O)[nH]4)cc3)c2s1` [Ex. 205, 3-(2-cyclohexyl-2-oxoethyl)-6-ethyl-1-{[2′-(5-oxo-4,5-dihydro-1,2,4-oxadiazol-3-yl)biphenyl-4-yl]methyl}thieno[2,3-d]pyrimidine-2,4(1H,3H)-dione], the activation at 1 µM on PPARγ (setting [1]) was 69%. Moreover, the IC50 on AT1 receptor was found to be 1.5 nM.

For the molecule `CCc1cc2c(=O)n(CC(=O)c3ccccc3)c(=O)n(Cc3ccc(-c4ccccc4-c4noc(=O)[nH]4)cc3)c2s1` [Ex. 209, 6-ethyl-1-{[2′-(5-oxo-4,5-dihydro-1,2,4-oxadiazol-3-yl)biphenyl-4-yl]methyl}-3-(2-oxo-2-phenylethyl)thieno[2,3-d]pyrimidine-2,4(1H,3H)-dione], on PPARγ (setting [1]), the activation at 1 µM stood at 66%. This molecule gave an IC50 at AT1 receptor of 1.4 nM.

`CCO/N=C(/Cn1c(=O)c2cc(CC)sc2n(Cc2ccc(-c3ccccc3-c3noc(=O)[nH]3)cc2)c1=O)c1ccc(OC)cc1` [Ex. 210, 3-[2-(ethoxyimino)-2-(4-methoxyphenyl)ethyl]-6-ethyl-1-{[2′-(5-oxo-4,5-dihydro-1,2,4-oxadiazol-3-yl)biphenyl-4-yl]methyl}thieno[2,3-d]pyrimidine-2,4(1H,3H)-dione]: on PPARγ (setting [1]), the activation at 1 µM came out at 31%. At AT1 receptor, the 50% inhibitory concentration (IC50) turned out to be 1.6 nM.

Turning to `CCc1cc2c(=O)n(CC(=NOC(C)C)c3ccc(OC)cc3)c(=O)n(Cc3ccc(-c4ccccc4-c4noc(=O)[nH]4)cc3)c2s1` [Ex. 213, 6-ethyl-3-[2-(isopropoxyimino)-2-(4-methoxyphenyl)ethyl]-1-{[2′-(5-oxo-4,5-dihydro-1,2,4-oxadiazol-3-yl)biphenyl-4-yl]methyl}thieno[2,3-d]pyrimidine-2,4(1H,3H)-dione], the activation at 1 µM at PPARγ (setting [1]) is 49%. This molecule displayed an IC50 at AT1 receptor of 2 nM.

For `C=CCON=C(Cn1c(=O)c2cc(CC)sc2n(Cc2ccc(-c3ccccc3-c3noc(=O)[nH]3)cc2)c1=O)c1ccc(OC)cc1` [Ex. 214, 3-[2-[(allyloxy)imino]-2-(4-methoxyphenyl)ethyl]-6-ethyl-1-{[2′-(5-oxo-4,5-dihydro-1,2,4-oxadiazol-3-yl)biphenyl-4-yl]methyl}thieno[2,3-d]pyrimidine-2,4(1H,3H)-dione], on PPARγ (setting [1]), the activation at 1 µM is 41%. Further, the IC50 at AT1 receptor came out at 1.8 nM.

As to `CCc1cc2c(=O)n(CC(=NOC)c3ccccc3)c(=O)n(Cc3ccc(-c4ccccc4-c4noc(=O)[nH]4)cc3)c2s1` [Ex. 215, 6-ethyl-3-[2-(methoxyimino)-2-phenylethyl]-1-{[2′-(5-oxo-4,5-dihydro-1,2,4-oxadiazol-3-yl)biphenyl-4-yl]methyl}thieno[2,3-d]pyrimidine-2,4(1H,3H)-dione], at PPARγ (setting [1]), the activation at 1 µM was found to be 27%. The IC50 on AT1 receptor was 1.3 nM.

With `CCc1cc2c(=O)n(CC(=O)c3cccs3)c(=O)n(Cc3ccc(-c4ccccc4-c4noc(=O)[nH]4)cc3)c2s1` [Ex. 221, 6-ethyl-1-{[2′-(5-oxo-4,5-dihydro-1,2,4-oxadiazol-3-yl)biphenyl-4-yl]methyl}-3-[2-oxo-2-(2-thienyl)ethyl]thieno[2,3-d]pyrimidine-2,4(1H,3H)-dione], the activation at 1 µM at PPARγ (setting [1]) was 47%. This molecule also displayed an IC50 on AT1 receptor of 1.4 nM.

Turning to `CCc1cc2c(=O)n(CC(=O)c3sccc3Br)c(=O)n(Cc3ccc(-c4ccccc4-c4noc(=O)[nH]4)cc3)c2s1` [Ex. 222, 3-[2-(3-bromo-2-thienyl)-2-oxoethyl]-6-ethyl-1-{[2′-(5-oxo-4,5-dihydro-1,2,4-oxadiazol-3-yl)biphenyl-4-yl]methyl}thieno[2,3-d]pyrimidine-2,4(1H,3H)-dione], on PPARγ (setting [1]), the activation at 1 µM is 32%. The molecule further came in with an IC50 at AT1 receptor of 1.9 nM.

For the molecule `CCc1cc2c(=O)n(CC(C)(C)c3ccccc3)c(=O)n(Cc3ccc(-c4ccccc4-c4noc(=O)[nH]4)cc3)c2s1` [Ex. 225, 6-ethyl-3-(2-methyl-2-phenylpropyl)-1-{[2′-(5-oxo-4,5-dihydro-1,2,4-oxadiazol-3-yl)biphenyl-4-yl]methyl}thieno[2,3-d]pyrimidine-2,4(1H,3H)-dione], on PPARγ (setting [1]), the activation at 1 µM stood at 39%. This molecule displayed an IC50 at AT1 receptor of 1.6 nM.

Turning to `CCc1cc2c(=O)n(CCc3ccc(F)cc3)c(=O)n(Cc3ccc(-c4ccccc4-c4noc(=O)[nH]4)cc3)c2s1` [Example 56, 6-ethyl-3-[2-(4-fluorophenyl)ethyl]-1-{[2′-(5-oxo-4,5-dihydro-1,2,4-oxadiazol-3-yl)biphenyl-4-yl]methyl}thieno[2,3-d]pyrimidine-2,4(1H,3H)-dione], the activation at 1 µM on PPARγ (setting [1]) came out at 65%. Also, the IC50 at AT1 receptor turned out to be 0.34 nM.
